Test results as given in ChEMBL document CHEMBL5346946, “Targeting Arginine Methyltransferase PRMT5 for Cancer Therapy: Updated Progress and Novel Strategies” (J Med Chem, 2023).

Key:
[1] = molecular target: Voltage-gated inwardly rectifying potassium channel KCNH2 (Homo sapiens, UniProt Q12809); assay: Inhibition of hERG potassium channel in human HEK293 cells by manual patch clamp assay; assay type: toxicity, cell-based
[2] = tested on: Z-138; assay: Antiproliferative activity against human Z138 cells assessed as cell growth inhibition measured after 7 days by CCK-8 assay; assay type: functional, cell-based; settings: Z-138, 168 h
[3] = tested on: MDA-MB-468; assay: Antiproliferative activity against human MDA-MB-468 assessed as cell growth inhibition measured after 7 days by CCK-8 assay; assay type: functional, cell-based; settings: MDA-MB-468, 168 h
[4] = tested on: NCI-H358; assay: Antiproliferative activity against human NCI-H358 assessed as cell growth inhibition measured after 7 days by CCK-8 assay; assay type: functional, cell-based; settings: NCI-H358, 168 h
[5] = tested on: HCT-116; assay: Anti-proliferative activity against wild type human HCT-116 cells assessed as cell growth inhibition incubated overnight by CellTiter-Glo luminescent assay; assay type: functional, cell-based
[6] = Anti-proliferative activity against human HCT116-MTAP null cells assessed as cell growth inhibition incubated overnight by CellTiter-Glo luminescent assay; assay type: functional, cell-based
[7] = molecular target: T1, PRMT5/MEP50 complex (Homo sapiens, UniProt O14744); assay: Binding affinity to PRMT5/MEP50 (unknown origin) using histone H4 peptide assessed as inhibition constant preincubated for 24 hrs followed by substrate addition and measured for 2 hrs in the presence of SAM by MTase-Glo Methyl Transferase Assay; assay type: protein-complex assay
[8] = Anti-proliferative activity against human HCT116-MTAP null cells assessed as cell growth inhibition incubated for 6 days by CellTiter-Glo Luminescent Cell Viability Assay; assay type: functional, cell-based; settings: 144 h
[9] = tested on: NCI-H1048; assay: Antiproliferative activity against human NCI-H1048 cells assessed as cell growth inhibition incubated for 6 days by MTT assay; assay type: functional; settings: NCI-H1048, 144 h, time 6 day
[10] = molecular target: PRMT5/MEP50 complex (Homo sapiens) (UniProt O14744+Q9BQA1); assay: Binding affinity to Full-length human PRMT5/human MEP50 assessed as association constant by SPR analysis; assay type: protein-complex assay
[11] = molecular target: T2, Protein arginine N-methyltransferase 5 (Homo sapiens, UniProt O14744); assay: Inhibition of PRMT5 in human NCI-H1048 cells assessed as reduction in dimethylation of SmD1/3 at 1 nM incubated for 48 hrs relative to control; assay type: cell-based
[12] = molecular target: T2, Protein arginine N-methyltransferase 5; assay: Inhibition of PRMT5 in human NCI-H1048 cells assessed as reduction in dimethylation of SmD1/3 at 10 nM incubated for 48 hrs relative to control; assay type: cell-based
[13] = tested on: NCI-H1048; assay: Antitumor activity against human NCI-H1048 cells xenografted in mouse assessed as tumor growth inhibition at 10 mg/kg, po administered daily for 28 days relative to control; assay type: functional; settings: NCI-H1048, 672 h, time 28 day, read-out: TGI
[14] = tested on: NCI-H1048; assay: Antitumor activity against human NCI-H1048 cells xenografted in mouse assessed as tumor growth inhibition at 10 mg/kg, po administered daily for 28 days with two cycles of 7 days of treatment followed by 7 days without treatment relative to control; assay type: functional; settings: NCI-H1048, 672 h, time 28 day, read-out: TGI
[15] = molecular target: T1, PRMT5/MEP50 complex; assay: Binding affinity to N-terminal 6xHis-tagged full length human PRMT5/MEP50 expressed in sf21 cells using S-Adenosyl-L-methionine as substrate assessed as dissociation constant incubated for 25 to 60 mins by liquid scintillation analysis
[16] = molecular target: T2, Protein arginine N-methyltransferase 5; assay: Inhibition of PRMT5 in human A427 cells assessed as reduction in sDMA level incubated for 72 hrs by liquid scintillation analysis
[17] = tested on: A-427; assay: Antitumor activity in human A-427 harboring RBM10 I348N mutant xenografted in mouse model assessed as tumor growth inhibition at 3 mg/kg administered once daily and measured after 44 days relative to control; assay type: functional; settings: A-427, 1056 h, time 44 day, read-out: TGI
[18] = tested on: A-427; assay: Antitumor activity in human A-427 harboring RBM10 I348N mutant xenografted in mouse model assessed as tumor growth inhibition at 10 mg/kg administered once daily and measured after 44 days relative to control; assay type: functional; settings: A-427, 1056 h, time 44 day, read-out: TGI
[19] = tested on: A-427; assay: Antitumor activity in human A-427 harboring RBM10 I348N mutant xenografted in mouse model assessed as tumor growth inhibition at 30 mg/kg administered once daily and measured after 44 days relative to control; assay type: functional; settings: A-427, 1056 h, time 44 day, read-out: TGI
[20] = In vivo inhibition of PMRT5 in mouse xenografted with human A427 cells assessed as reduction in sDMA level by ELISA (reference value: 66.4%); assay type: functional, A-427
[21] = Clearance in rat; assay type: ADME; settings: in vivo
[22] = Volume of distribution at steady state in rat at 2 mg/kg, iv; assay type: ADME, organism-based; settings: in vivo, read-out: Vdss
[23] = Oral bioavailability in rat at 10 mg/kg; assay type: ADME, organism-based; settings: in vivo
[24] = tested on: U-87 MG; assay: Anti-proliferative activity against human U-87 MG cells assessed as cell growth inhibition incubated for 3 days by CCK-8 assay; assay type: functional, cell-based, U-87MG ATCC; settings: 72 h
[25] = molecular target: T1, PRMT5/MEP50 complex; assay: Inhibition of PRMT5/MEP50 (unknown origin) using histone H4 peptide as substrate preincubated for 30 mins followed by substrate addition and measured for 60 mins by AlphaScreen analysis; assay type: protein-complex assay
[26] = tested on: Z-138; assay: Anti-proliferative activity against human Z138 cells assessed as cell growth inhibition incubated for 8 days by Cell-Titer Glo assay; assay type: functional, cell-based; settings: Z-138, 192 h
[27] = molecular target: T2, Protein arginine N-methyltransferase 5; assay: Inhibition of PRMT5 in human Z138 cells assessed as decrease in sDMA modification incubated for 2 days by fluorescence based assay; assay type: cell-based
[28] = Oral bioavailability in CB17-SCID mouse at 10 mg/kg incubated for 24 hrs by LC-MS/MS analysis; assay type: ADME, organism-based; settings: in vivo
[29] = tested on: Z-138; assay: Antitumor activity against human Z138 cells xenografted in CB17-SCID mouse at 50 mg/kg, po QD for 3 weeks relative to control; assay type: functional; settings: Z-138, 504 h, read-out: TGI
[30] = molecular target: T2, Protein arginine N-methyltransferase 5; assay: Inhibition of PRMT5 in human U-87 MG cells assessed as suppression of sDMA level incubated for 3 days by western blot analysis; assay type: cell-based
[31] = molecular target: T2, Protein arginine N-methyltransferase 5; assay: Inhibition of PRMT5 (unknown origin)
[32] = molecular target: T2, Protein arginine N-methyltransferase 5; assay: Inhibition of PRMT5 in human Z138 cells assessed as suppression of sDMA level; assay type: cell-based
[33] = tested on: Z-138; assay: Antiproliferative activity against human Z138 cells; assay type: functional, cell-based
[34] = tested on: Z-138; assay: Antitumor activity against human Z138 cells xenografted in mouse as tumor growth inhibition at 1.5 mg/kg, po administered twice daily relative to control; assay type: functional; settings: read-out: TGI
[35] = tested on: Z-138; assay: Antitumor activity against human Z138 cells xenografted in mouse as tumor growth inhibition at 5 mg/kg, po administered twice daily relative to control; assay type: functional; settings: read-out: TGI
[36] = tested on: Z-138; assay: Antitumor activity against human Z138 cells xenografted in mouse as tumor growth inhibition at 15 mg/kg, po administered twice daily relative to control; assay type: functional; settings: read-out: TGI

T2 sequence (O14744 whole entry): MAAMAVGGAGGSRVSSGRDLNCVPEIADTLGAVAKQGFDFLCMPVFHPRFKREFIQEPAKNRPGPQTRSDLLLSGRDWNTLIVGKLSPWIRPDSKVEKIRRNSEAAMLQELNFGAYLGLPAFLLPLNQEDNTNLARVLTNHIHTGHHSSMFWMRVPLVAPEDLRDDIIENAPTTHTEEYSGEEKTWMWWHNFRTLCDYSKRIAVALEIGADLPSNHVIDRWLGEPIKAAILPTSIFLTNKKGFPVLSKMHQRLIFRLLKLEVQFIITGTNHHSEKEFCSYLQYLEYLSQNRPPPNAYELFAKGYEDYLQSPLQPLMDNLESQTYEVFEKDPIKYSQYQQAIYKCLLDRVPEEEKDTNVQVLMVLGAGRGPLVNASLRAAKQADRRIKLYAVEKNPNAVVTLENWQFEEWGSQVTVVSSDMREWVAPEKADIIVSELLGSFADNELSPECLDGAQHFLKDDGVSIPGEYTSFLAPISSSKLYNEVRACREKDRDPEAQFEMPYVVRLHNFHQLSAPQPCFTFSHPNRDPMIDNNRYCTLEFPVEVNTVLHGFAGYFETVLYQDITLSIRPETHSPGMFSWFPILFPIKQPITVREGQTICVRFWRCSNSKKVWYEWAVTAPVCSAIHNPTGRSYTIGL
T1 sequence (O14744 whole entry): as above
T1 sequence (Q9BQA1 whole entry, further chain): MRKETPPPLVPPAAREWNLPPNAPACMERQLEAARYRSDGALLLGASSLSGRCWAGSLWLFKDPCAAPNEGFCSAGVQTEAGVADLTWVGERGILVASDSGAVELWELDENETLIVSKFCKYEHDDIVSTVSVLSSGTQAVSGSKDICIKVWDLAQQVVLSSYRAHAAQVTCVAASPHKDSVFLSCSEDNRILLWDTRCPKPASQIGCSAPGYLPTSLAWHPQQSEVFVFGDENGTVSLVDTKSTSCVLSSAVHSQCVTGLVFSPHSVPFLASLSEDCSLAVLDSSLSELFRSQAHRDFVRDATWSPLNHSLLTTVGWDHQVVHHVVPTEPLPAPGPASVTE
Chain of Voltage-gated inwardly rectifying potassium channel KCNH2 (Q12809 whole entry): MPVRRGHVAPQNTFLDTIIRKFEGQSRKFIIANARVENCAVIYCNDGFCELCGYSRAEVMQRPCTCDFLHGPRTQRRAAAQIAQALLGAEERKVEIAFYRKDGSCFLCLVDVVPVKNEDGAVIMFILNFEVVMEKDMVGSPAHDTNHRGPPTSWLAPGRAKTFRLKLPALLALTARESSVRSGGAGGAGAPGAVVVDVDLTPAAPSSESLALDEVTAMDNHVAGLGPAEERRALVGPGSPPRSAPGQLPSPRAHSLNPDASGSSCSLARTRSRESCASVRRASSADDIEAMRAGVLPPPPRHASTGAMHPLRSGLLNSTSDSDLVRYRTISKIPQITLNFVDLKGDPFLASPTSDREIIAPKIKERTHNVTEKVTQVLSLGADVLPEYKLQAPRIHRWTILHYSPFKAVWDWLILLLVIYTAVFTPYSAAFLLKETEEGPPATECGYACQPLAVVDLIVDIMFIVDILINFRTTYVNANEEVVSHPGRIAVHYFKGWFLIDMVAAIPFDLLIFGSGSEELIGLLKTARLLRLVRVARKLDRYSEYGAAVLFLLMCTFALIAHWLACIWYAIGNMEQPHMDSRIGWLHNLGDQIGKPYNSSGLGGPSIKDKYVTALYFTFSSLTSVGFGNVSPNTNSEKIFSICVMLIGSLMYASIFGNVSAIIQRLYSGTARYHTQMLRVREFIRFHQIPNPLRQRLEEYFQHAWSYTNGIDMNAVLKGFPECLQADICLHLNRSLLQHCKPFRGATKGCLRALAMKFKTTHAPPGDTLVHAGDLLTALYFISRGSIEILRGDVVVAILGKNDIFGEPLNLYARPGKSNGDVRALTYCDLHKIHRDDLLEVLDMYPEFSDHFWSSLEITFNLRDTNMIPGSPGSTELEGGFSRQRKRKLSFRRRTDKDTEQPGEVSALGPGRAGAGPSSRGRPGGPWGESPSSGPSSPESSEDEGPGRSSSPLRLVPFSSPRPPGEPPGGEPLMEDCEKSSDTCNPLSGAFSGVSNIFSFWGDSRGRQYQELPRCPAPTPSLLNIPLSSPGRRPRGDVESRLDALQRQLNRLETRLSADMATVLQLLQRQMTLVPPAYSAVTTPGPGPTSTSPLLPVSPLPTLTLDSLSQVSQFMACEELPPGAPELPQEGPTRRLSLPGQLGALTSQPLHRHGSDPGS

With `CC(=O)N1CC2(CC(Nc3cc4c(cn3)C3(CC3)CN(C[C@H](O)CN3CCc5ccccc5C3)C4=O)C2)C1` the IC50 [1] was 15100 nM, the IC50 [2] was 2.2 nM and the IC50 [3] was 7.4 nM. The IC50 [4] was 5 nM.

Compound `Cc1cc2cc(C(=O)N(Cc3ccc(C(F)(F)F)cn3)[C@@H]3CCCc4[nH]ncc43)ccc2nc1N` has an IC50 [5] of 142 nM, an IC50 [6] of 10 nM and a Ki [7] of 0.05 nM. The IC50 [8] was 5 nM.

In the case of `Nc1nc2cc(CC[C@H]3C[C@@H](n4ccc5c(N)ncnc54)[C@H](O)[C@@H]3O)ccc2cc1Br` [ONAMETOSTAT], the GI50 [9] is reported as 1.3 nM, the Ka [10] is reported as 6.3 10^5/M/s and the inhibition [11] is reported as > 50%. It also gave an inhibition [12] of 80%, an inhibition in vivo at 10 mg/kg [13] of 77% and an inhibition in vivo at 10 mg/kg [14] of 67%.

Work on `Nc1ncnc2c1ccn2[C@@H]1O[C@H]([C@H](O)c2ccc(Cl)c(F)c2)[C@@H](O)[C@H]1O` yielded a Kd [15] of 0.241 nM.

With `Cc1ncnc2c1ccn2[C@@H]1C[C@H](Oc2cc(C(F)F)c(F)c3c2CNCC3)[C@@H](O)[C@H]1O` the Kd [15] was 0.0114 nM, the IC50 [16] was 1.1 nM and the inhibition in vivo at 3 mg/kg [17] was 52.1%. The inhibition in vivo at 10 mg/kg [18] was 74.9%, the inhibition in vivo at 30 mg/kg [19] was 101% and the “inhibition (INH)” value [20] was 79.8%. It also gave a clearance [21] of 40 mL/min/kg, a Vd [22] of 3.8 L/kg and a bioavailability [23] of 40%.

For `CC(=O)N1CCC(Nc2cc3c(cn2)C2(CC2)CN(C[C@H](O)CN2CCc4ccccc4C2)C3=O)CC1`, the IC50 [1] was 5200 nM.

With `Nc1ncnc2c1ccn2[C@@H]1O[C@H]([C@@H]2OCCc3cc(Cl)ccc32)[C@@H](O)[C@H]1O` the IC50 [24] was 2.6 nM.

For `CC1(C)CN(C[C@@H](O)[C@@H]2Cc3ccccc3CN2)C(=O)c2ccc(C(=O)N3CCC4(CC3)CC4)cc21`, the IC50 [25] was 2.8 nM, the IC50 [26] was 0.3 nM and the IC50 [27] was 0.8 nM. For the same compound, the bioavailability [28] was 46.2% and the inhibition in vivo at 50 mg/kg [29] was 93.2%.

Work on `Nc1ncnc2c1ccn2[C@@H]1O[C@H]([C@@H]2OCc3cc(Cl)ccc32)[C@@H](O)[C@H]1O` yielded an IC50 [30] of 120 nM.

Work on `CCN1CCN(C[C@@H](O)[C@@H]2Cc3ccccc3CN2)C(=O)c2ccc(C(=O)N3CCC4(CC3)CC(OC)C4)cc21` yielded an IC50 [31] of 4.2 nM, an IC50 [32] of 1.4 nM and an IC50 [33] of 2.2 nM. The inhibition in vivo at 1.5 mg/kg [34] was 36%, the inhibition in vivo at 5 mg/kg [35] was 47.8% and the inhibition in vivo at 15 mg/kg [36] was 112%.
